The values below come from ChEMBL document CHEMBL3352261, “Discovery of inhibitors of the mitotic kinase TTK based on N-(3-(3-sulfamoylphenyl)-1H-indazol-5-yl)-acetamides and carboxamides” (Bioorg Med Chem, 2014).

By GI50 is commonly meant the concentration giving 50% growth inhibition. A word on the IC50: it is the midpoint of a concentration-inhibition curve. A lower IC50 goes with greater potency.

Assay [1] in a line: Growth inhibition of human HCT116 cells after 5 days by SRB assay. The format is functional. Particulars: HCT-116, 120 h. (In general: Sulforhodamine B stains cellular protein and so reports cell mass.)
The target of assay [2] is T1, Dual specificity protein kinase TTK (Homo sapiens, UniProt P33981).
T1 sequence (P33981 whole entry): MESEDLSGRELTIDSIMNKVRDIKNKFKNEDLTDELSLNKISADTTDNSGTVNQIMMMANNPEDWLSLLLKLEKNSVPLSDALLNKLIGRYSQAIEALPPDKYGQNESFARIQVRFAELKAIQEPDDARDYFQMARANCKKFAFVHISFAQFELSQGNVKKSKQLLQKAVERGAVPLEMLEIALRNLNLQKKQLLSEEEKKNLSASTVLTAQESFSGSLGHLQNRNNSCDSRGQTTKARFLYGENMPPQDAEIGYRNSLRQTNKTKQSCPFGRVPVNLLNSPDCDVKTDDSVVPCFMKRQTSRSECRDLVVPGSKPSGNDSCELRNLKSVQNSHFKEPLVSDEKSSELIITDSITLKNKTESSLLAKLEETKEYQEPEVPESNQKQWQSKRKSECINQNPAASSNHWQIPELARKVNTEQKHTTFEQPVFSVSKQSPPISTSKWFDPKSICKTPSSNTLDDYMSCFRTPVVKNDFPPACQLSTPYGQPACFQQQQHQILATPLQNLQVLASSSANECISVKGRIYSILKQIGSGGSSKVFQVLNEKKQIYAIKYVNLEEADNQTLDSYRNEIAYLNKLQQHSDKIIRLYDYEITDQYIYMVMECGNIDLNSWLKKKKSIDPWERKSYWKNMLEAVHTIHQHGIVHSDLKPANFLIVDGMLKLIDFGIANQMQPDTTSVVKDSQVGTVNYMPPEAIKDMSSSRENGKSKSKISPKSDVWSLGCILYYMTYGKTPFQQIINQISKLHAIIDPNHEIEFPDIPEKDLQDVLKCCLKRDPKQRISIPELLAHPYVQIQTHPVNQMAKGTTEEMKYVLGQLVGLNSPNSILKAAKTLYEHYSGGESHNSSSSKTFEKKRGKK
The assay is described as follows: Inhibition of SUMO-tagged human TTK (1-275 residues) compound pre-incubated for 15 mins prior ATP addition by MBP-based assay.

A further assay concerns A549. The assay is described as follows: Growth inhibition of human A549 cells after 5 days by SRB assay. The format is functional. Particulars: A549, 120 h.
The test system of a further assay is MDA-MB-468. The assay is described as follows: Growth inhibition of human MDA-MB-468 cells after 5 days by SRB assay. To be noted: MDA-MB-468, 120 h. The format is functional.

In turn, `NS(=O)(=O)c1cccc(-c2n[nH]c3ccc(NC(=O)C(c4ccccc4)C4CCCCC4)cc23)c1` (racemic) registered a GI50 in assay [1] of 430 nM. This molecule showed a 50% inhibitory concentration (IC50) in assay [2] of 61 nM.

Consider `NS(=O)(=O)c1cccc(-c2n[nH]c3ccc(NC(=O)Cc4ccncc4)cc23)c1`, for which, in assay [1], the GI50 stood at 50000 nM. In assay [2], 340 nM corresponded to half-maximal inhibition (IC50).

`Cc1ccccc1CC(=O)Nc1ccc2[nH]nc(-c3cccc(S(N)(=O)=O)c3)c2c1`: halving of growth in assay [1] (GI50) required 1800 nM. In assay [2], this molecule came in with a concentration for half-maximal inhibition (IC50) of 25 nM.

In the case of `NS(=O)(=O)c1cccc(-c2n[nH]c3ccc(NC(=O)C(c4ccccc4)N4CCCCC4)cc23)c1` (racemic), the GI50 was found to be 400 nM in the assay with A549, 690 nM in the assay on MDA-MB-468 and 270 nM in assay [1]. The molecule further registered an IC50 in assay [2] of 10 nM.

In the case of `NS(=O)(=O)c1cccc(-c2n[nH]c3ccc(NC(=O)Cc4ccccn4)cc23)c1`, in assay [1], the 50% growth inhibitory concentration (GI50) is 6890 nM. In addition, in assay [2], the half-inhibitory concentration (IC50) worked out at 90 nM.

Consider `NS(=O)(=O)c1cccc(-c2n[nH]c3ccc(NC(=O)C(c4ccccc4)N4CCCC4)cc23)c1` (racemic), for which the GI50 with A549 stood at 230 nM; with MDA-MB-468, 350 nM; in assay [1], 110 nM. The midpoint of inhibition in assay [2], the IC50, lay at 8.9 nM.

In the case of `Cc1ccccc1CNC(=O)c1ccc2[nH]nc(-c3cccc(S(N)(=O)=O)c3)c2c1`, the concentration for 50% growth inhibition (GI50) in assay [1] worked out at 1800 nM. This molecule also came in with a 50% inhibitory concentration (IC50) in assay [2] of 18 nM.

In assay [1], `NS(=O)(=O)c1cccc(-c2n[nH]c3ccc(NC(=O)C4(c5ccccc5)CC4)cc23)c1` yielded a GI50 of 7300 nM. The molecule further yielded an IC50 in assay [2] of 310 nM.

In turn, `NS(=O)(=O)c1cccc(-c2n[nH]c3ccc(NC(=O)Cc4cccs4)cc23)c1` showed a GI50 in assay [1] of 2900 nM. The concentration for half-maximal inhibition (IC50) in assay [2] stood at 16 nM.

In assay [1], `NS(=O)(=O)c1cccc(-c2n[nH]c3ccc(NC(=O)CCc4ccccc4)cc23)c1` displayed a GI50 of more than 50000 nM. The midpoint of inhibition in assay [2], the IC50, lay at 980 nM.

In turn, `NS(=O)(=O)c1cccc(-c2n[nH]c3cc(NC(=O)c4cccs4)ccc23)c1` displayed an IC50 in assay [2] of 4300 nM.

`NS(=O)(=O)c1cccc(-c2n[nH]c3ccc(C(=O)NC(c4ccsc4)C4CC4)cc23)c1` (racemic) had a 50% growth inhibitory concentration (GI50) in assay [1] of 610 nM. In addition, inhibition in assay [2] was half-maximal at 4 nM (IC50).

Consider `CC(C)C(C(=O)Nc1ccc2[nH]nc(-c3cccc(S(N)(=O)=O)c3)c2c1)c1ccccc1` (racemic), for which 46 nM corresponded to half-maximal inhibition in assay [2] (IC50).

Take `NS(=O)(=O)c1cccc(-c2n[nH]c3ccc(OCc4ccccc4)cc23)c1`: the concentration for half-maximal inhibition (IC50) in assay [2] turned out to be 580 nM.

For `CCOC(C(=O)Nc1ccc2[nH]nc(-c3cccc(S(N)(=O)=O)c3)c2c1)c1ccccc1` (racemic), the GI50 in the assay on A549 worked out at 800 nM; in the assay on MDA-MB-468, 1400 nM; in assay [1], 400 nM. Also, the IC50 in assay [2] came out at 14 nM.

`CCc1cccc(CC)c1NS(=O)(=O)Nc1ccc2[nH]nc(-c3cccc(S(N)(=O)=O)c3)c2c1`: the GI50 in assay [1] was determined as 50000 nM. For the same molecule, the IC50 in assay [2] stood at 2600 nM.

Regarding `NS(=O)(=O)c1cccc(-c2n[nH]c3cc(-c4ccccc4)ccc23)c1`, the IC50 in assay [2] was determined as 5400 nM.

Molecule `CC(=O)Nc1ccc2c(-c3cccc(S(N)(=O)=O)c3)n[nH]c2c1` yielded an IC50 in assay [2] of 18000 nM.

Consider `CO[C@H](C(=O)Nc1ccc2[nH]nc(-c3cccc(S(N)(=O)=O)c3)c2c1)c1ccccc1`, for which the 50% growth inhibitory concentration (GI50) in the assay with A549 is 3600 nM; in the assay with MDA-MB-468, 2200 nM; in assay [1] it was 800 nM. Further, the half-inhibitory concentration (IC50) in assay [2] worked out at 26 nM.

Regarding `CN(C)[C@@H](C(=O)Nc1ccc2[nH]nc(-c3cccc(S(N)(=O)=O)c3)c2c1)c1ccccc1`, the values for the 50% growth inhibitory concentration (GI50) (in the assay with A549; in the assay with MDA-MB-468; in assay [1]) were 3400 nM, 1300 nM and 1100 nM, respectively. In addition, the IC50 in assay [2] came to 15 nM.

In assay [1], `CN(Cc1ccccc1)C(=O)c1ccc2[nH]nc(-c3cccc(S(N)(=O)=O)c3)c2c1` had a GI50 of 180 nM. The IC50 in assay [2] was found to be 250 nM.

`NS(=O)(=O)c1cccc(-c2n[nH]c3ccc(C(=O)NC4(c5ccccc5)CC4)cc23)c1` displayed a concentration for 50% growth inhibition (GI50) in assay [1] of 3300 nM. The molecule further registered an IC50 in assay [2] of 35 nM.

`NS(=O)(=O)c1cccc(-c2n[nH]c3cccc(-c4c(F)cccc4F)c23)c1` had an IC50 in assay [2] of 1400 nM.

Consider `NS(=O)(=O)c1cccc(-c2n[nH]c3ccc(C(=O)NCc4cccs4)cc23)c1`, for which the GI50 in assay [1] is 1800 nM. Also, the IC50 in assay [2] was found to be 33 nM.

Take `NS(=O)(=O)c1cccc(-c2n[nH]c3ccc(NS(=O)(=O)Nc4ccccc4)cc23)c1`: the GI50 in assay [1] was found to be 6890 nM. Further, half-maximal inhibition in assay [2] (IC50) required 710 nM.

As to `NS(=O)(=O)c1cccc(-c2n[nH]c3ccc(C(=O)NCc4ccccc4)cc23)c1`, halving of growth in assay [1] (GI50) required 1800 nM. In assay [2], this molecule registered a half-inhibitory concentration (IC50) of 90 nM.

In turn, `CCc1cccc(CC)c1NC(=O)N(C)c1ccc2[nH]nc(-c3cccc(S(N)(=O)=O)c3)c2c1` registered a GI50 in assay [1] of more than 50000 nM. In assay [2], the IC50 was more than 50000 nM.

As to `NS(=O)(=O)c1cccc(-c2n[nH]c3ccc(CNC(=O)c4ccccc4)cc23)c1`, halving of growth in assay [1] (GI50) required 700 nM. In assay [2], this molecule came in with a concentration for half-maximal inhibition (IC50) of 550 nM.

`CCc1cccc(CC)c1CC(=O)Nc1ccc2[nH]nc(-c3cccc(S(N)(=O)=O)c3)c2c1` returned a 50% growth inhibitory concentration (GI50) in assay [1] of 180 nM. In assay [2], this molecule displayed an IC50 of 17 nM.

`NS(=O)(=O)c1cccc(-c2n[nH]c3ccc(NS(=O)(=O)c4cccs4)cc23)c1` displayed a 50% growth inhibitory concentration (GI50) in assay [1] of 3400 nM. In assay [2], half-maximal inhibition (IC50) required 340 nM.

On to `CNC(=O)c1ccc2c(-c3cccc(S(N)(=O)=O)c3)n[nH]c2c1`, for which the IC50 in assay [2] came out at 11000 nM.

As for `NS(=O)(=O)c1cccc(-c2n[nH]c3ccc(NC(=O)Cc4ccccc4)cc23)c1`, growth in assay [1] was halved (GI50) at 21000 nM. In addition, in assay [2], it took 39 nM to reach half-maximal inhibition (IC50).

In assay [2], `CC(=O)Nc1ccc2[nH]nc(-c3cccc(S(N)(=O)=O)c3)c2c1` gave a 50% inhibitory concentration (IC50) of 640 nM.

With `Cc1cccc(CS(=O)(=O)Nc2ccc3[nH]nc(-c4cccc(S(N)(=O)=O)c4)c3c2)c1`, the GI50 in assay [1] turned out to be 28000 nM. In addition, the IC50 in assay [2] stood at 330 nM.

`NS(=O)(=O)c1cccc(-c2n[nH]c3ccc(C(=O)NC(c4ccccc4)C4CCCCC4)cc23)c1` (racemic) yielded a GI50 in assay [1] of 810 nM. Moreover, the IC50 in assay [2] turned out to be 47 nM.

With `CCc1cccc(CC)c1CNC(=O)c1ccc2[nH]nc(-c3cccc(S(N)(=O)=O)c3)c2c1`, halving of growth in assay [1] (GI50) required 700 nM. Also, half-maximal inhibition in assay [2] (IC50) required 80 nM.

In assay [1], `NS(=O)(=O)c1cccc(-c2n[nH]c3ccc(OCCc4cccs4)cc23)c1` displayed a concentration for 50% growth inhibition (GI50) of 750 nM. In assay [2], this molecule came in with a half-inhibitory concentration (IC50) of 380 nM.

In assay [2], `COc1cccc2[nH]nc(-c3cccc(S(N)(=O)=O)c3)c12` gave an IC50 of 2300 nM.

Consider `COc1ccc2[nH]nc(-c3cccc(S(N)(=O)=O)c3)c2c1`, for which, in assay [2], the IC50 was 600 nM. This IC50 is about 3.8-fold lower than that of the molecule before.

The molecule `NS(=O)(=O)c1cccc(-c2n[nH]c3ccc(-c4ccccc4)cc23)c1` came in with an IC50 in assay [2] of 4300 nM.

`CCC(C(=O)Nc1ccc2[nH]nc(-c3cccc(S(N)(=O)=O)c3)c2c1)c1ccccc1` (racemic) displayed a GI50 in assay [1] of 1300 nM. Besides, half-maximal inhibition in assay [2] (IC50) required 24 nM.

Regarding `NS(=O)(=O)c1cccc(-c2n[nH]c3ccc(NC(=O)c4cccs4)cc23)c1`, the half-maximal inhibitory concentration (IC50) in assay [2] was found to be 280 nM. This counts as sub-micromolar.

`NS(=O)(=O)c1cccc(-c2n[nH]c3ccc(NC(=O)Nc4ccccc4)cc23)c1`: the 50% growth inhibitory concentration (GI50) in assay [1] is 41000 nM. This molecule registered an IC50 in assay [2] of 390 nM.

For `NS(=O)(=O)c1cccc(-c2n[nH]c3ccc(C(=O)NC(c4ccccc4)C4CC4)cc23)c1` (racemic), in assay [2], the IC50 is 16 nM.

For the molecule `NS(=O)(=O)c1cccc(-c2n[nH]c3ccc(NC(=O)C(c4ccccc4)C4CCCC4)cc23)c1` (racemic), in assay [1], growth was halved (GI50) at 630 nM. Inhibition in assay [2] was half-maximal at 53 nM (IC50).

Turning to `Cc1ccccc1NC(=O)Cc1ccc2[nH]nc(-c3cccc(S(N)(=O)=O)c3)c2c1`, the GI50 in assay [1] is more than 50000 nM. The molecule also yielded a 50% inhibitory concentration (IC50) in assay [2] of more than 5000 nM.
